The values below are quoted from earlier work in patent publication US9173845B2, “Controlled release pharmaceutical compositions of milnacipran” (priority 2009, dated 2015).

The conditions of this data set: immediate release Milnacipran, background.

Turning to `CCN(CC)C(=O)C1(c2ccccc2)CC1CN` (stereo not drawn) [Milnacipran, cis-2-amino methyl-N,N-diethyl-1-phenyl cyclopropane carboxamide], the half-life was approximately 8 h.

What is called half-life is the time needed for the level to fall by half in the phase considered.
